Patent US8304190B2, “Pharmacogenomics of blood pressure lowering agents” (Royal College of Surgeons in Ireland, priority 2005, dated 2012)
“Also recorded” adds a separate entry of the source. Read-outs that look alike come from different tables or passages of the source. Values belong to the compound of their own block, whether it stands above or below them.

Columns and labels:
[1] = for Plasma aliskiren on treatment (trough): Aliskiren 300 mg, after four weeks, median (interquartile range)
hypertensive patients = assay: Clinic blood pressure, change from baseline with study treatment, by renin −5312 C/T genotype; type: in vivo, human; conditions: for BP lowering by −5312 C/T genotype: clinic and ambulatory BP, T allele carriers versus CC homozygotes
From the text: Tables 2 and 3 show baseline clinic and ambulatory blood pressures, and the changes from baseline with study treatment.

plasma renin = conditions: aliskiren 160-640 mg; unstimulated plasma renin 10-20 pg/ml; cited from earlier work
clinical = conditions: human, plasma, Plasma aliskiren on treatment (trough), after four weeks, median (interquartile range)
plasma renin activity [2] = assay: Trough plasma renin activity (PRA) after four weeks of treatment; conditions: for Effect of therapy on PRA: trough PRA after four weeks of treatment; for PRA Percentage Change / PRA on treatment (trough): Losartan 100 mg, after four weeks, median (interquartile range)
plasma renin activity [3] = target: T1, plasma renin activity (Homo sapiens, UniProt P00797); assay: as above; conditions: after four weeks, median (interquartile range)
T1 sequence (P00797 67-406): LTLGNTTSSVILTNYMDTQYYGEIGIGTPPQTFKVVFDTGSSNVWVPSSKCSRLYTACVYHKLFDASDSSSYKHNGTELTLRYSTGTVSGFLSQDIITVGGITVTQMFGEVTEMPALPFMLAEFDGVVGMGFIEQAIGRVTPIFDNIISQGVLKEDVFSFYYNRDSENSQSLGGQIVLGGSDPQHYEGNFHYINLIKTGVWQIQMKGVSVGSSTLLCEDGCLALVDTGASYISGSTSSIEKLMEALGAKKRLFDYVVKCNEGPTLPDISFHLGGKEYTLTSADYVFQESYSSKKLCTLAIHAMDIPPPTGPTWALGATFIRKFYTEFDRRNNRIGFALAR

[4] = Ren CC homozygotes, Aliskiren 37.5 mg
[5] = Ren CC homozygotes, Aliskiren 75 mg
[6] = Ren CC homozygotes, Aliskiren 150 mg
[7] = Ren CC homozygotes, Aliskiren 300 mg
[8] = Ren T allele carriers, Aliskiren 37.5 mg
[9] = Ren T allele carriers, Aliskiren 75 mg
[10] = Ren T allele carriers, Aliskiren 150 mg
[11] = Ren T allele carriers, Aliskiren 300 mg

Plasma aliskiren on treatment (trough) ([1]; Ren CC homozygotes): 31.5 (70.3, 13.5) ng/ml | Plasma aliskiren on treatment (trough) ([1]; Ren T allele carriers): 20.5 (41.0, 17.0) ng/ml | Reduction of on treatment plasma aliskiren levels amongst T allele carriers ([1]; T allele carriers versus CC homozygotes, trough, after 4 weeks of treatment): 20%-30% | concentration at 4 weeks (clinical; 37.5 mg, Ren CC homozygotes, Aliskiren 37.5 mg): 3.1 ng/mL | concentration at 4 weeks (clinical; 37.5 mg, Ren T allele carriers, Aliskiren 37.5 mg): 2.4 ng/mL | concentration at 4 weeks (clinical; 75 mg, Ren CC homozygotes, Aliskiren 75 mg): 4.4 ng/mL | concentration at 4 weeks (clinical; 75 mg, Ren T allele carriers, Aliskiren 75 mg): 3.9 ng/mL | concentration at 4 weeks (clinical; 150 mg, Ren CC homozygotes, Aliskiren 150 mg): 11 ng/mL | concentration at 4 weeks (clinical; 150 mg, Ren T allele carriers, Aliskiren 150 mg): 7.1 ng/mL | concentration at 4 weeks (clinical; 300 mg, Ren CC homozygotes, Aliskiren 300 mg): 31.9 ng/mL | concentration at 4 weeks (clinical; 300 mg, Ren T allele carriers, Aliskiren 300 mg): 20.5 ng/mL | PRA Percentage Change (plasma renin activity [3]; [4]): −50.0 (−4.5, −62.7) % | PRA on treatment (trough) (plasma renin activity [3]; [4]): 0.32 (0.12, 0.77) ng/ml/h | PRA Percentage Change (plasma renin activity [3]; [5]): −61.7 (−32.7, −82.1) % | PRA on treatment (trough) (plasma renin activity [3]; [5]): 0.16 (0.09, 0.46) ng/ml/h | PRA Percentage Change (plasma renin activity [3]; [6]): −77.8 (−70.6, −84.8) % | PRA on treatment (trough) (plasma renin activity [3]; [6]): 0.10 (0.06, 0.31) ng/ml/h | PRA Percentage Change (plasma renin activity [3]; [7]): −82.5 (−69.9, −86.7) % | PRA on treatment (trough) (plasma renin activity [3]; [7]): 0.17 (0.06, 0.42) ng/ml/h | PRA Percentage Change (plasma renin activity [3]; [8]): −63.8 (−11.2, −77.9) % | PRA on treatment (trough) (plasma renin activity [3]; [8]): 0.17 (0.06, 0.89) ng/ml/h | PRA Percentage Change (plasma renin activity [3]; [9]): −54.3 (−44.4, −81.5) % | PRA on treatment (trough) (plasma renin activity [3]; [9]): 0.42 (0.20, 0.59) ng/ml/h | PRA Percentage Change (plasma renin activity [3]; [10]): −75.7 (−67.4, −82.1) % | PRA on treatment (trough) (plasma renin activity [3]; [10]): 0.17 (0.12, 0.47) ng/ml/h | PRA Percentage Change (plasma renin activity [3]; [11]): −82.5 (−69.9, −86.7) % | PRA on treatment (trough) (plasma renin activity [3]; [11]): 0.18 (0.06, 0.51) ng/ml/h
Structure (SMILES): COCCCOc1cc(C[C@@H](C[C@H](N)[C@@H](O)C[C@H](C(=O)NCC(C)(C)C(N)=O)C(C)C)C(C)C)ccc1OC [Aliskiren]
Relationship between dose and BP lowering (hypertensive patients; Aliskiren 37.5 to 300 mg daily): clear dose response relationship | BP lowering by −5312 C/T genotype (hypertensive patients): BP lowering was greatest amongst CC homozygotes; also recorded: amongst CC homozygotes of the −5312 C/T variant | Plasma renin levels in the presence of aliskiren (plasma renin): 300 to 600 pg/mL | Effect of therapy on PRA (plasma renin activity [2]): suppressed PRA

Structure (SMILES): CCCCc1nc(Cl)c(CO)n1Cc1ccc(-c2ccccc2-c2nn[nH]n2)cc1 [Losartan]
BP lowering by −5312 C/T genotype (hypertensive patients): greatest with Losartan 100 mg daily amongst T allele carriers; also recorded: amongst T allele carriers of the −5312 C/T variant | PRA Percentage Change (plasma renin activity [2]; Ren CC homozygotes): 110.32 (15.4, 262.5) % | PRA on treatment (trough) (plasma renin activity [2]; Ren CC homozygotes): 1.65 (0.60, 3.20) ng/ml/h | PRA Percentage Change (plasma renin activity [2]; Ren T allele carriers): 97.6 (22.2, 363.8) % | PRA on treatment (trough) (plasma renin activity [2]; Ren T allele carriers): 1.80 (0.65, 3.30) ng/ml/h | Effect of therapy on PRA (plasma renin activity [2]): increased PRA levels
